Experimental data taken from patent publication US6723333B1, “Moulded bodies made of thermoplastic polyurethane containing an active substance” (priority 1998, dated 2004).

Tested on: sensor bacteria (E. coli—test strain)
Experiment: Bioimaging of released active substance by effect-dependent bioluminescence of sensor bacteria
Type: cell-based
Conditions: after high temperatures of about 200° C. required for thermoplastic processing
Method: Microbiological evaluation and quantification of the release of active substance was performed using a new bioimaging technique. This method makes use of the selective effect-dependent bioluminescence of sensor bacteria (E. coli—test strain), in order to render visible the biological activity of the released active substance. The gyrase-inhibiting effect of ciprofloxacin was used in the system according to the invention, Texin® 5590 ciprofloxacin.
For imaging of the antibacterial effect, about 1 cm^2 sized samples of the active substance-containing material were placed in a petri dish and covered with a suspension of sensor bacteria in agarose. After an incubation period of about 30 minutes, the effect-dependent bioluminescence was assessed using a video-imaging system (e.g. EG&G Berthold, Luminograph LB 980). Antibiotic samples then appeared as luminescing areas.

O=C(O)c1cn(C2CC2)c2cc(N3CCNCC3)c(F)cc2c1=O [ciprofloxacin]
microbiological efficacy of the ciprofloxacin released from the polymer matrix: retained
